Consider two molecules from patent US7138361B2, “Herbicidal heterocycles” (E. I. du Pont de Nemours and Company, priority 2000, dated 2006).

Holding throughout (assay type): in vivo
Experiment [1] deals with blackgrass (Alopecurus myosuroides). In words: Test B postemergence. As to conditions: 13 to 15 days. In outline: (§1)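 Greenhouse test: chemicals are formulated in a surfactant-containing non-phytotoxic solvent and applied either preemergence to planted seeds or postemergence to plants 2 to 18 cm tall. Response is rated visually versus controls after 13 to 15 days, 0 meaning no effect and 100 complete control.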

Experiment [2] concerns lambsquarters (Chenopodium album). In words: Test B postemergence. As to conditions: 13 to 15 days. In outline:
as §1

Experiment [3] deals with barnyardgrass (Echinochloa crus-galli). In words: Test B flooded paddy test. Particulars: Rate 1000 g/ha, scale of 0 to 100 where 0 is no effect and 100 is complete control, visually evaluated after 13 to 15 days. In outline: (§2)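 Visual injury score on a 0–100 scale, where 100 means complete control, assigned against untreated controls 13 to 15 days after plants at the 2-leaf stage were treated under flooded paddy conditions.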

Experiment [4] concerns duck salad (Heteranthera limosa). In words: Test B flooded paddy test. Particulars: Rate 1000 g/ha, scale of 0 to 100 where 0 is no effect and 100 is complete control, visually evaluated after 13 to 15 days. Put shortly: as §2
Experiment [5] has as its system rice (Oryza saliva). In words: Test B flooded paddy test. Particulars: Rate 1000 g/ha, scale of 0 to 100 where 0 is no effect and 100 is complete control, visually evaluated after 13 to 15 days. Put shortly:
as §2

The subject of experiment [6] is smallflower flatsedge (Cyperus difformis). In words: Test B flooded paddy test. As to conditions: Rate 1000 g/ha, scale of 0 to 100 where 0 is no effect and 100 is complete control, visually evaluated after 13 to 15 days. In outline:
as §2

Experiment [7] deals with barnyardgrass (Echinochloa crus-galli). In words: Test C flooded paddy test. Particulars: for Barnyardgrass plant response rating: Flooded Paddy, scale 0 to 100, 0 no effect, 100 complete control; for Plant response rating, Barnyardgrass: flooded paddy test, scale 0 to 100 (0 no effect, 100 complete control). Put shortly:
(§3)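 Visual injury score, 0 (no effect) to 100 (complete control), relative to controls. Paddy plants treated at 2-leaf stage; greenhouse hold 12–14 d before rating.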

The test system of experiment [8] is duck salad (Heteranthera limosa). In words: Test C flooded paddy test. Particulars: for Ducksalad plant response rating: Flooded Paddy, scale 0 to 100, 0 no effect, 100 complete control; for Plant response rating, Ducksalad: flooded paddy test, scale 0 to 100 (0 no effect, 100 complete control). Put shortly:
as §3

Experiment [9] relates to rice (Oryza saliva). In words: Test C flooded paddy test. Particulars: for Rice plant response rating: Flooded Paddy, scale 0 to 100, 0 no effect, 100 complete control; for Plant response rating, Rice: flooded paddy test, scale 0 to 100 (0 no effect, 100 complete control). Put shortly:
as §3

In experiment [10] the test system is smallflower flatsedge (Cyperus difformis). In words: Test C flooded paddy test. Particulars: for Flatsedge plant response rating: Flooded Paddy, scale 0 to 100, 0 no effect, 100 complete control; for Plant response rating, Flatsedge: flooded paddy test, scale 0 to 100 (0 no effect, 100 complete control). Put shortly:
as §3

Where [11] appears, read: Rate 125 g/ha, scale 0 (no effect) to 100 (complete control).
[12] abbreviates: Rate 500 g/ha, scale 0 to 100, 0 is no effect, 100 is complete control.

Regarding `CC(C)c1ccn(C2SCN(c3cccc(OC(F)(F)F)c3)C2=O)n1` (stereo not drawn) [Compound 31], the “Plant response rating, Blackgrass” value in [1] (setting [11]) and in [1] (setting [12]) was 0 in each case. Moreover, the “Plant response rating, Lambsquarters” value in [2] (setting [11]) is given as 70; in [2] (setting [12]), 80. Also, the “Plant response rating, Barnyardgrass” value in experiment [3] is reported as 100; in experiment [7] (Rate 62 g/ha), 80; in experiment [7] (Rate 125 g/ha), 80. In addition, the “Plant response rating, Ducksalad” value in experiment [4] was found to be 100; in experiment [8] (Rate 62 g/ha), 70; in experiment [8] (Rate 125 g/ha) it was 90. The “Plant response rating, Rice” value in the experiment on rice (Oryza saliva) [5] is given as 90; in the experiment on rice (Oryza saliva) [9] (Rate 62 g/ha), 30; in the experiment on rice (Oryza saliva) [9] (Rate 125 g/ha) it was 60. In addition, the “Plant response rating, Flatsedge” value in [6], in [10] (Rate 62 g/ha) and in experiment [10] (Rate 125 g/ha) was 100 each time. Moreover, the results for the “Barnyardgrass plant response rating” value in [7] (Rate 250 g/ha) and in experiment [7] (Rate 500 g/ha) were 90 and 100, respectively. The “Ducksalad plant response rating” value in [8] (Rate 250 g/ha) and in experiment [8] (Rate 500 g/ha) was 100 in each case. Moreover, the “Rice plant response rating” value in the experiment with rice (Oryza saliva) [9] (Rate 250 g/ha) and in the experiment with rice (Oryza saliva) [9] (Rate 500 g/ha) was 90 each time. Further, the “Flatsedge plant response rating” value in [10] (Rate 250 g/ha) and in [10] (Rate 500 g/ha) was 100 each time.
With `CCC(C)c1ccn(C2SCN(c3cccc(OC(F)(F)F)c3)C2=O)n1` (stereo not drawn) [Compound 32], the “Plant response rating, Blackgrass” value in [1] (setting [11]) and in experiment [1] (setting [12]) was 0 in each case. Besides, the “Plant response rating, Lambsquarters” value in experiment [2] (setting [11]) came to 80; in experiment [2] (setting [12]), 90. Moreover, the “Plant response rating, Barnyardgrass” value worked out at 100 in [3], 20 in experiment [7] (Rate 62 g/ha) and 100 in experiment [7] (Rate 125 g/ha). In addition, the “Plant response rating, Ducksalad” value in experiment [4] amounted to 100; in experiment [8] (Rate 62 g/ha) it was 50; in [8] (Rate 125 g/ha), 80. Moreover, the “Plant response rating, Rice” value in the experiment on rice (Oryza saliva) [5] is on record as 100; in the experiment with rice (Oryza saliva) [9] (Rate 62 g/ha), 0; with rice (Oryza saliva) [9] (Rate 125 g/ha), 30. In addition, the “Plant response rating, Flatsedge” value in experiment [6], in experiment [10] (Rate 62 g/ha) and in experiment [10] (Rate 125 g/ha) was 100 throughout. In addition, the “Barnyardgrass plant response rating” value in experiment [7] (Rate 250 g/ha) and in [7] (Rate 500 g/ha) was 100 in each case. Also, the “Ducksalad plant response rating” value in [8] (Rate 250 g/ha) is reported as 100; in experiment [8] (Rate 500 g/ha), 80. Moreover, the “Rice plant response rating” value in the experiment on rice (Oryza saliva) [9] (Rate 250 g/ha) and in the experiment with rice (Oryza saliva) [9] (Rate 500 g/ha) was 100 in each case. Besides, the “Flatsedge plant response rating” value in [10] (Rate 250 g/ha) and in [10] (Rate 500 g/ha) was 100 in each case.
